# Assay results reported in patent EP4745137A1 (Gluetacs Therapeutics (Shanghai) Co., Ltd., priority 2023, dated 2025).
# Where two headings read alike, the source gives them in different places.
# What was measured:
# CK1α = biological target: T1, CK1α (Homo sapiens, UniProt P48729+Q96SW2); assay: Western-blot assay of substrate protein degradation in hPBMCs, CK1α; format: cell-based; details: 24 hours of compound treatment
# T1 construct: endogenous in cells; host or cells: hPBMCs (Milecell Biotechnologies)
# T1 sequence (P48729 whole entry): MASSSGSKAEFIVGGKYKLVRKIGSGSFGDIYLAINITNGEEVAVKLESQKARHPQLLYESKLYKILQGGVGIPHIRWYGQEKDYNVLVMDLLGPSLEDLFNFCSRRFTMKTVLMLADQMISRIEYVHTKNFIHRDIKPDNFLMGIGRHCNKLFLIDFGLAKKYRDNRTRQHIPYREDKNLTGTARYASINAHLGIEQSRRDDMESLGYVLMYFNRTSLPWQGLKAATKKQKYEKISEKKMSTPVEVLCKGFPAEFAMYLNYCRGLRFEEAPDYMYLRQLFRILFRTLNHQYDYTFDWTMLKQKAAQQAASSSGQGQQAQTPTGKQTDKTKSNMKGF
# T1 sequence (Q96SW2 whole entry): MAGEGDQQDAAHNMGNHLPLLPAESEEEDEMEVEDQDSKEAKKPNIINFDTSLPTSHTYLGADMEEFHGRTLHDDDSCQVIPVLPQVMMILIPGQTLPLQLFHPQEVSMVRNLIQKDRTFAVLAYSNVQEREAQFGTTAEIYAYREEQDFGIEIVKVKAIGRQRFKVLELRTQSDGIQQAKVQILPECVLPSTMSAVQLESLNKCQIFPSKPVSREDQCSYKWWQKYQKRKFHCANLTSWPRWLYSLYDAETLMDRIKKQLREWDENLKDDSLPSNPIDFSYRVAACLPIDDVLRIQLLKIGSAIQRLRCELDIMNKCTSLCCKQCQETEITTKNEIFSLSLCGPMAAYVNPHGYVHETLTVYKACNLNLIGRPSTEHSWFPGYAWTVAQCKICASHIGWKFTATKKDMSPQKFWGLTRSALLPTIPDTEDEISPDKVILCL
# T1 sequence (Q16531 whole entry partner): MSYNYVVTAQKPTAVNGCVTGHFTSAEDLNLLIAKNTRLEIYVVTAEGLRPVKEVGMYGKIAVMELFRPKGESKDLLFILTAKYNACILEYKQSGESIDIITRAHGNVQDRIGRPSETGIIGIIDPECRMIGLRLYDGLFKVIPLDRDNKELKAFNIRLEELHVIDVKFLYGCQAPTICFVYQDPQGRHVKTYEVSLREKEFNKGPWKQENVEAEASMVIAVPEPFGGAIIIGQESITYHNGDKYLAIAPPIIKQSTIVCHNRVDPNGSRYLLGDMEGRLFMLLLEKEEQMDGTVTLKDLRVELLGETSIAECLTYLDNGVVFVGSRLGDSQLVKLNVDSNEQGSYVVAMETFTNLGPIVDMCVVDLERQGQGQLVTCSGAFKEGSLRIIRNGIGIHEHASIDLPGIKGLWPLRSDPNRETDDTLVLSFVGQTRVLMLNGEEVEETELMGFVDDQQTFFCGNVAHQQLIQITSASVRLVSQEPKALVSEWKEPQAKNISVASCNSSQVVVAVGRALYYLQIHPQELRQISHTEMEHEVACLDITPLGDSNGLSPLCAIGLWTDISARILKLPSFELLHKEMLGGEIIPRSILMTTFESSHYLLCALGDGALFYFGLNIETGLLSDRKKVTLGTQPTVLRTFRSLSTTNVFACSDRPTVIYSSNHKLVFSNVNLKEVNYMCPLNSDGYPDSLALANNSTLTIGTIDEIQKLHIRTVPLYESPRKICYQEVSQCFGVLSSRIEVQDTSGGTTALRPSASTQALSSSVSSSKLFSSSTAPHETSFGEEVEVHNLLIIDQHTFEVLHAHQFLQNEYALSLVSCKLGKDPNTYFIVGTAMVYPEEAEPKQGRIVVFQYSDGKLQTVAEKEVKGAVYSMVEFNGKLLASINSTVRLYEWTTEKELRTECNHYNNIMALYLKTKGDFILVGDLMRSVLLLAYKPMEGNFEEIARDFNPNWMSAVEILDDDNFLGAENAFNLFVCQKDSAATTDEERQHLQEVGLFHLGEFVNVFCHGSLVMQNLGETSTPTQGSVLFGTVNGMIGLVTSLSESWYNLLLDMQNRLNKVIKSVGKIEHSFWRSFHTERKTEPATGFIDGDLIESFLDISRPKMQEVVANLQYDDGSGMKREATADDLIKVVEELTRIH
# GSPT1 = biological target: T2, GSPT1 (Homo sapiens, UniProt P15170+Q96SW2); assay: Western-blot assay of substrate protein degradation in hPBMCs, GSPT1; format: cell-based; details: 24 hours of compound treatment
# T2 construct: endogenous in cells; host or cells: hPBMCs (Milecell Biotechnologies)
# [1] = biological target: T3, human Cereblon WT GST-tagged protein (Homo sapiens, UniProt Q96SW2); assay: CRBN-binding affinity by HTRF (CEREBLON BINDING kit); details: HTRF inhibitory activity, CEREBLON BINDING kit; read-out: HTRF IC50
# T3 construct: purchased CISBIO 64BDCRBNPEH
# T3 sequence (Q96SW2 whole entry): as the sequence (Q96SW2 whole entry) above
# Jurkat = assay: Tumor cell proliferation inhibition (CellTiter-Meiluncell Luminescent Cell Viability Assay), Jurkat; details: Homo sapiens, read-out: inhibitory activity (IC50, nM) against tumor cells proliferation, Jurkat
# [2] = tested on: Human acute T lymphocytic leukemia cells (Molt-4); assay: Tumor cell proliferation inhibition (CellTiter-Meiluncell Luminescent Cell Viability Assay), Molt-4; details: MOLT-4, 96 h, read-out: inhibitory activity (IC50, nM) against tumor cells proliferation, Molt 4
# WEE1 = biological target: T4, WEE1 (Homo sapiens, UniProt P30291+Q96SW2); assay: Western-blot assay of substrate protein degradation in hPBMCs, WEE1; format: cell-based; details: 24 hours of compound treatment
# T4 construct: endogenous in cells; host or cells: hPBMCs (Milecell Biotechnologies)
# T4 sequence (P30291 whole entry): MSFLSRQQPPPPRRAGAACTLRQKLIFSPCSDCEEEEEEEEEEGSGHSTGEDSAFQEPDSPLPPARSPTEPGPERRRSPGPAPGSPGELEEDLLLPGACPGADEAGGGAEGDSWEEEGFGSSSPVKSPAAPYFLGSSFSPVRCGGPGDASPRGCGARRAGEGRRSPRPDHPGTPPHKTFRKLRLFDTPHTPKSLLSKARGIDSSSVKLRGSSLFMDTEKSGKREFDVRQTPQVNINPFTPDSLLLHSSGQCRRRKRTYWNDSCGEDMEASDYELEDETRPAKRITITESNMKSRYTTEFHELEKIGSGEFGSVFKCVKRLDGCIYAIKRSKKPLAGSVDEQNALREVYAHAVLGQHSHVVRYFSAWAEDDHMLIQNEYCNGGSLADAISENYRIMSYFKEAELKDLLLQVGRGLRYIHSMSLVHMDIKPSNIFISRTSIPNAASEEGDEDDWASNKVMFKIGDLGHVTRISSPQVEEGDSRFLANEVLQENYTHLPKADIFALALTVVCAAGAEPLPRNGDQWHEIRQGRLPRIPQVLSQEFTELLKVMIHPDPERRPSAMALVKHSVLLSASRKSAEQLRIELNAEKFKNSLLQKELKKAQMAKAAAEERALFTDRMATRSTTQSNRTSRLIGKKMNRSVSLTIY
# T4 sequence (Q96SW2 whole entry): as the sequence (Q96SW2 whole entry) above
# T4 sequence (Q16531 whole entry partner): as the sequence (Q16531 whole entry partner) above
# IKZF3 = biological target: T5, IKZF3 (Homo sapiens, UniProt Q96SW2+Q9UKT9); assay: Western-blot assay of substrate protein degradation in hPBMCs, IKZF3; format: cell-based; details: 24 hours of compound treatment
# T5 construct: endogenous in cells; host or cells: hPBMCs (Milecell Biotechnologies)
# T5 sequence (Q9UKT9 whole entry): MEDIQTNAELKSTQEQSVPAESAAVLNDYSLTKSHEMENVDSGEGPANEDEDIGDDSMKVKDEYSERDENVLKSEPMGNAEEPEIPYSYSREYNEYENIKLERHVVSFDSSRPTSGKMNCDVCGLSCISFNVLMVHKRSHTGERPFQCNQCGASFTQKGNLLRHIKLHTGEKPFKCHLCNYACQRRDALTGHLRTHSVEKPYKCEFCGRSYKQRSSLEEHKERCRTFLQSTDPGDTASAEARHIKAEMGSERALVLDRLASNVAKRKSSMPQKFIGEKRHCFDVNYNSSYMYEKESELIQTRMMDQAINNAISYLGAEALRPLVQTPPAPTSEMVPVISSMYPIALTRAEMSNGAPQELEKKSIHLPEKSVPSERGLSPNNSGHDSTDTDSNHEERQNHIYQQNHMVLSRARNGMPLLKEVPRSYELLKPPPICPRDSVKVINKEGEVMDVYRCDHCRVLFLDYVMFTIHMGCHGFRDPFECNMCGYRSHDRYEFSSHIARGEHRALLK
# T5 sequence (Q96SW2 whole entry): as the sequence (Q96SW2 whole entry) above
# T5 sequence (Q16531 whole entry partner): as the sequence (Q16531 whole entry partner) above
# CCRF-CEM = assay: Tumor cell proliferation inhibition (CellTiter-Meiluncell Luminescent Cell Viability Assay), CCRF-CEM; details: Homo sapiens, 96 h, read-out: inhibitory activity (IC50, nM) against tumor cells proliferation, CCRF-CEM
# IKZF2 = biological target: T6, IKZF2 (Homo sapiens, UniProt Q96SW2+Q9UKS7); assay: Western-blot assay of substrate protein degradation in hPBMCs, IKZF2; format: cell-based; details: 24 hours of compound treatment
# T6 construct: endogenous in cells; host or cells: hPBMCs (Milecell Biotechnologies)
# T6 sequence (Q9UKS7 whole entry): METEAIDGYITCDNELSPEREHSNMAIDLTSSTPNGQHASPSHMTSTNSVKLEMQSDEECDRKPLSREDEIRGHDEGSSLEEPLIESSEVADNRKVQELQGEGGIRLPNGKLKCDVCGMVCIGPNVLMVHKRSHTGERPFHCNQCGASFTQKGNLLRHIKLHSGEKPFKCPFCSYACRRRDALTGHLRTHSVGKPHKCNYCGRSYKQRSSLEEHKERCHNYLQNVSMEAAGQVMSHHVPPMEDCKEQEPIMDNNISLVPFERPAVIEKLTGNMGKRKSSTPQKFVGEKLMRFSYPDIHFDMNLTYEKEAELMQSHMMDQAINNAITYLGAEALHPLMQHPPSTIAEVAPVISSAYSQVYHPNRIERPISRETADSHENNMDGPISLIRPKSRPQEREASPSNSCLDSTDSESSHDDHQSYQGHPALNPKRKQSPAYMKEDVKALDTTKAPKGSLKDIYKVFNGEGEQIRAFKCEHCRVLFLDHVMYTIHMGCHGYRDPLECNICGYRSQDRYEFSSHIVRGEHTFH
# T6 sequence (Q96SW2 whole entry): as the sequence (Q96SW2 whole entry) above
# T6 sequence (Q16531 whole entry partner): as the sequence (Q16531 whole entry partner) above
# IKZF1 = biological target: T7, IKZF1 (Homo sapiens, UniProt Q13422+Q96SW2); assay: Western-blot assay of substrate protein degradation in hPBMCs, IKZF1; format: cell-based; details: 24 hours of compound treatment
# T7 construct: endogenous in cells; host or cells: hPBMCs (Milecell Biotechnologies)
# T7 sequence (Q13422 whole entry): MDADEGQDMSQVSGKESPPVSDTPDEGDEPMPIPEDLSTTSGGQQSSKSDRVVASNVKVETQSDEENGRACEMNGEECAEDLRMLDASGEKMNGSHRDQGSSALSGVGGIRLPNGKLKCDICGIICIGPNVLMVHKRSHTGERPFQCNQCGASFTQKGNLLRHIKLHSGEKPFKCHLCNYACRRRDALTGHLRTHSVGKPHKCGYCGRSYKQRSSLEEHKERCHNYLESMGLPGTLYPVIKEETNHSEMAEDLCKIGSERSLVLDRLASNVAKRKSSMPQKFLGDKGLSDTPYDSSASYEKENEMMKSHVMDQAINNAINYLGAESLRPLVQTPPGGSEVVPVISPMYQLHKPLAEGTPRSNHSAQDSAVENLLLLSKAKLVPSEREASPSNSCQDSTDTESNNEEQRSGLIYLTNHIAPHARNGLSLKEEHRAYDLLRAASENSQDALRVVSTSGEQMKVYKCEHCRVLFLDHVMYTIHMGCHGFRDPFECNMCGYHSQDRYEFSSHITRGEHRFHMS
# T7 sequence (Q96SW2 whole entry): as the sequence (Q96SW2 whole entry) above
# T7 sequence (Q16531 whole entry partner): as the sequence (Q16531 whole entry partner) above
# MM.1R = assay: Tumor cell proliferation inhibition (CellTiter-Meiluncell Luminescent Cell Viability Assay), MM.1R; details: Homo sapiens, 96 h, read-out: inhibitory activity (IC50, nM) against tumor cells proliferation, MM.1R
# NCI-H1975 = assay: Tumor cell proliferation inhibition (CellTiter-Meiluncell Luminescent Cell Viability Assay), NCI-H1975; details: Homo sapiens, NCI-H1975, 96 h, read-out: inhibitory activity (IC50, nM) against tumor cells proliferation, H1975
# [3] = tested on: Human breast cancer cells (MDA-MB-231); assay: Tumor cell proliferation inhibition (CellTiter-Meiluncell Luminescent Cell Viability Assay), MDA-MB-231; details: MDA-MB-231, 96 h, read-out: inhibitory activity (IC50, nM) against tumor cells proliferation, MDA-MB-231
# CAL-62 = assay: Tumor cell proliferation inhibition (CellTiter-Meiluncell Luminescent Cell Viability Assay), CAL-62; details: Homo sapiens, CAL-62, 96 h, read-out: inhibitory activity (IC50, nM) against tumor cells proliferation, CAL-62
# [4] = compounds tested at 50 nM and 500 nM (concentration of the table not stated)
# [5] = 50 nM and 500 nM tested (concentration behind the class not stated)
IC50 [1] [nM],IC50 (Jurkat; 96 h) [nM],IC50 [2] [nM],IC50 (MM.1R) [nM],IC50 (CAL-62) [nM],Compound,CK1a substrate protein remaining % (CK1α; [4]),GSPT1 substrate protein remaining % (GSPT1; [4]),Weel substrate protein remaining % (WEE1; [4]),IKZF3 substrate protein remaining % (IKZF3; [4]),IKZF2 substrate protein remaining % (IKZF2; [4]),IKZF 1 substrate protein remaining % (IKZF1; [4]),other results
500 to 1000,100 to 500,100 to 500,–,–,"O=C1CCC(N2Cc3cc(CN4CCN(c5cccc(Cl)c5Cl)CC4)cc(F)c3C2=O)C(=O)N1 (stereo not shown) [GT-04445, 3-(5-((4-(2,3-dichlorophenyl)piperazin-1-yl)methyl)-7-fluoro-1-oxoisoindolin-2-yl)piperidine-2,6-dione]",B (80%< substrate protein remaining %≤ 100%),A (0% ≤ substrate protein remaining % ≤ 80%),B (80%< substrate protein remaining %≤ 100%),A (0% ≤ substrate protein remaining % ≤ 80%),A (0% ≤ substrate protein remaining % ≤ 80%),A (0% ≤ substrate protein remaining % ≤ 80%),IC50 (CCRF-CEM): 100 to 500 nM
1000 to 1500,100 to 500,100 to 500,100 to 500,–,"COc1ccc(N2CCN(Cc3ccc4c(c3)CN(C3CCC(=O)NC3=O)C4=O)CC2)cc1 (stereo not shown) [GT-04447, 3-(5-((4-(4-methoxyphenyl)piperazin-1-yl)methyl)-1-oxoisoindolin-2-yl)piperidine-2,6-dione]",B (80%< substrate protein remaining %≤ 100%),A (0% ≤ substrate protein remaining % ≤ 80%),B (80%< substrate protein remaining %≤ 100%),A (0% ≤ substrate protein remaining % ≤ 80%),A (0% ≤ substrate protein remaining % ≤ 80%),A (0% ≤ substrate protein remaining % ≤ 80%),IC50 (CCRF-CEM): 100 to 500 nM
500 to 1000,–,1 to 5,1 to 5,5 to 10,"O=C1CCC(N2Cc3c(ccc(CN4CCN(c5cccc(Cl)c5Cl)CC4)c3F)C2=O)C(=O)N1 (stereo not shown) [GT-04526, 3-(5-((4-(2,3-dichlorophenyl)piperazin-1-yl)methyl)-4-fluoro-1-oxoisoindolin-2-yl)piperidine-2,6-dione]",A (0% ≤ substrate protein remaining % ≤ 80%),A (0% ≤ substrate protein remaining % ≤ 80%),A (0% ≤ substrate protein remaining % ≤ 80%),A (0% ≤ substrate protein remaining % ≤ 80%),A (0% ≤ substrate protein remaining % ≤ 80%),A (0% ≤ substrate protein remaining % ≤ 80%),IC50 (NCI-H1975): 10 to 50 nM; IC50 [3]: 10 to 50 nM
1500 to 1900,10 to 50,10 to 50,50 to 100,100 to 500,"O=C1CCC(N2Cc3cc(CN4CCN(c5ccc(F)c(F)c5)CC4)ccc3C2=O)C(=O)N1 (stereo not shown) [GT-04529, 3-(5-((4-(3,4-difluorophenyl)piperazin-1-yl)methyl)-1-oxoisoindolin-2-yl)piperidine-2,6-dione]",A (0% ≤ substrate protein remaining % ≤ 80%),A (0% ≤ substrate protein remaining % ≤ 80%),A (0% ≤ substrate protein remaining % ≤ 80%),A (0% ≤ substrate protein remaining % ≤ 80%),A (0% ≤ substrate protein remaining % ≤ 80%),A (0% ≤ substrate protein remaining % ≤ 80%),–
500 to 1000,10 to 50,10 to 50,10 to 50,10 to 50,"O=C1CCC(N2Cc3cc(CN4CCN(c5nccc(Cl)c5Cl)CC4)ccc3C2=O)C(=O)N1 (stereo not shown) [GT-04532, 3-(5-((4-(3,4-dichloropyridin-2-yl)piperazin-1-yl)methyl)-1-oxoisoindolin-2-yl)piperidine-2,6-dione]",A (0% ≤ substrate protein remaining % ≤ 80%),A (0% ≤ substrate protein remaining % ≤ 80%),A (0% ≤ substrate protein remaining % ≤ 80%),A (0% ≤ substrate protein remaining % ≤ 80%),A (0% ≤ substrate protein remaining % ≤ 80%),A (0% ≤ substrate protein remaining % ≤ 80%),–
500 to 1000,–,–,–,50 to 100,"O=C1CCC(N2Cc3cc(CN4CCN(c5cnnc(Cl)c5Cl)CC4)ccc3C2=O)C(=O)N1 (stereo not shown) [GT-04544, 3-(5-((4-(5,6-dichloropyridazin-4-yl)piperazin-1-yl)methyl)-1-oxoisoindolin-2-yl)piperidine-2,6-dione]",A (0% ≤ substrate protein remaining % ≤ 80%),A (0% ≤ substrate protein remaining % ≤ 80%),A (0% ≤ substrate protein remaining % ≤ 80%),A (0% ≤ substrate protein remaining % ≤ 80%),A (0% ≤ substrate protein remaining % ≤ 80%),A (0% ≤ substrate protein remaining % ≤ 80%),–
< 500,–,–,–,100 to 500,"O=C1CCC(N2Cc3cc(CN4CCN(c5cccs5)CC4)ccc3C2=O)C(=O)N1 (stereo not shown) [GT-04545, 3-(1-oxo-5-((4-(thiophen-2-yl)piperazin-1-yl)methyl)isoindolin-2-yl)piperidine-2,6-dione]",A (0% ≤ substrate protein remaining % ≤ 80%),A (0% ≤ substrate protein remaining % ≤ 80%),A (0% ≤ substrate protein remaining % ≤ 80%),A (0% ≤ substrate protein remaining % ≤ 80%),A (0% ≤ substrate protein remaining % ≤ 80%),A (0% ≤ substrate protein remaining % ≤ 80%),–
500 to 1000,100 to 500,100 to 500,100 to 500,–,"O=C1CCC(N2Cc3cc(CN4CCN(c5ccsc5)CC4)ccc3C2=O)C(=O)N1 (stereo not shown) [GT-04547, 3-(1-oxo-5-((4-(thiophen-3-yl)piperazin-1-yl)methyl)isoindolin-2-yl)piperidine-2,6-dione]",A (0% ≤ substrate protein remaining % ≤ 80%),A (0% ≤ substrate protein remaining % ≤ 80%),A (0% ≤ substrate protein remaining % ≤ 80%),A (0% ≤ substrate protein remaining % ≤ 80%),A (0% ≤ substrate protein remaining % ≤ 80%),A (0% ≤ substrate protein remaining % ≤ 80%),–
500 to 1000,10 to 50,10 to 50,10 to 50,–,"Cc1cscc1N1CCN(Cc2ccc3c(c2)CN(C2CCC(=O)NC2=O)C3=O)CC1 (stereo not shown) [GT-04548, 3-(5-((4-(4-methylthiophen-3-yl)piperazin-1-yl)methyl)-1-oxoisoindolin-2-yl)piperidine-2,6-dione]",A (0% ≤ substrate protein remaining % ≤ 80%),A (0% ≤ substrate protein remaining % ≤ 80%),A (0% ≤ substrate protein remaining % ≤ 80%),A (0% ≤ substrate protein remaining % ≤ 80%),A (0% ≤ substrate protein remaining % ≤ 80%),A (0% ≤ substrate protein remaining % ≤ 80%),IC50 (NCI-H1975): 500 to 1000 nM; IC50 [3]: 500 to 1000 nM
–,–,–,–,–,"O=C1CCC(N2C(=O)c3ccc(CN4CCC(c5ncc6ccsc6n5)CC4)cc3C2=O)C(=O)N1 (stereo not shown) [GT-06652, 2-(2,6-dioxopiperidin-3-yl)-5-((4-(thieno[2,3-d]pyrimidin-2-yl)piperidin-1-yl)methyl)isoindoline-1,3-dione]",–,–,–,–,–,–,CK1a substrate protein remaining % (CK1α; [5]): B (80%< substrate protein remaining %≤ 100%); GSPT1 substrate protein remaining % (GSPT1; [5]): A (0% ≤ substrate protein remaining % ≤ 80%); IC50 (Jurkat): 100 to 500 nM; Weel substrate protein remaining % (WEE1; [5]): A (0% ≤ substrate protein remaining % ≤ 80%); IKZF3 substrate protein remaining % (IKZF3; [5]): B (80%< substrate protein remaining %≤ 100%); IKZF2 substrate protein remaining % (IKZF2; [5]): A (0% ≤ substrate protein remaining % ≤ 80%); IKZF 1 substrate protein remaining % (IKZF1; [5]): B (80%< substrate protein remaining %≤ 100%)
